Assays:
[1] = UV absorption properties (λmax, molar extinction coefficient ε, efficiency E 1%, 1 cm); type: physicochemical; details: for ε: in M-1 cm-1
[2] = Critical wavelength (λcrit), approximate in-house measurement; type: physicochemical
From the text: As the precise test for critical wavelength was unable to be replicated exactly by the inventors due to the need for specialist equipment and a specific calibration of the spectrophotometer, these values are only approximate to a degree. […] This represents a highly useful result and so, compounds based around this benzoyl substitution pattern shown, are especially preferred.

[3] = Table 13B, miscellaneous compounds
[4] = Table 13B, values in order of the λmax values
[5] = Table 3, compounds from isocyanates or isothiocyanates

SMILES | λmax [1, 3] | E (1%, 1 cm) [1, 4] | ε [1, 4] | λcrit ([2]; Table 13B) | Ε (1%, 1 cm) ([1]; Table 3) | λmax [1, 5] | ε ([1]; Table 3) | λcrit ([2]; Table 3)
CCOC(=O)c1cc(/C=C/C(=O)C2=CN(C(C)(C)C)CCC2(C)C)c(C(=O)OCC)cc1/C=C/C(=O)C1=CN(C(C)(C)C)CCC1(C)C | 383 nm | 355 | 23457 | 388 nm | – | – | – | –
COc1cc(/C=C/C(=O)C2=CN(C(C)(C)C)CCC2(C)C)c(OC)cc1/C=C/C(=O)C1=CN(C(C)(C)C)CCC1(C)C | 402 nm | 559 | 32220 | 391 nm | – | – | – | –
CC1(C)CCN(C(C)(C)C)C=C1C(=O)c1ccc(N2CCN(c3ccc(C(=O)C4=CN(C(C)(C)C)CCC4(C)C)cc3)CC2)cc1 | 323 nm | 830 | 51851 | 356 nm | – | – | – | –
CCC(=O)C1=CN(c2ccc(N3C=C(C(=O)CC)C(C)(C)CC3)cc2)CCC1(C)C | 357 nm | 1290 | 52638 | 377 nm | – | – | – | –
CCCCCCCCCC(=O)C1=CN(c2ccc(N3C=C(C(=O)CCCCCCCCC)C(C)(C)CC3)cc2)CCC1(C)C | 359 nm | 898 | 54278 | 378 nm | – | – | – | –
CCCCCCCCCCCCCCCCCC(=O)C1=CN(c2ccc(N3C=C(C(=O)CCCCCCCCCCCCCCCCC)C(C)(C)CC3)cc2)CCC1(C)C | 359 nm | 447 | 37068 | 379 nm | – | – | – | –
CCCOC(=O)CCC(=O)C1=CN(c2ccc(N3C=C(C(=O)CCC(=O)OCCC)C(C)(C)CC3)cc2)CCC1(C)C | 358 nm | 820 | 47560 | 377 nm | – | – | – | –
CC1(C)CCN(c2ccc(N3C=C(C(=O)CC4CCCCC4)C(C)(C)CC3)cc2)C=C1C(=O)CC1CCCCC1 | 360 nm | 1030 | 56032 | 379 nm | – | – | – | –
CCCCCCC(=O)C1=CN(c2ccc(N3C=C(C(=O)CC(C)CCC=C(C)C)C(C)(C)CC3)cc2)CCC1(C)C (stereo not drawn) | 358 nm | 934 | 52353 | 378 nm | – | – | – | –
CC(C)(C)CC(C)(C)N1C=C(C(=O)/C=C/c2ccc(/C=C/C(=O)C3=CN(C(C)(C)CC(C)(C)C)CCC3(C)C)cc2)C(C)(C)CC1 | 386 nm | 486 | 31937 | 390 nm | – | – | – | –

Now from value to molecule:

λmax [1, 3] | E (1%, 1 cm) [1, 4] | ε [1, 4] | λcrit ([2]; Table 13B) | Ε (1%, 1 cm) ([1]; Table 3) | λmax [1, 5] | ε ([1]; Table 3) | λcrit ([2]; Table 3) | SMILES
348 nm | 1045 | 26657 | 377 nm | – | – | – | – | C=CC(=O)C1=CN(c2ccc(C)cc2)CCC1(C)C
316 nm | 626 | 21545 | 360 nm | – | – | – | – | CCCCNc1ccc(C(=O)C2=CN(C(C)(C)C)CCC2(C)C)cc1
391 nm | 369 | 24359 | 388 nm | – | – | – | – | CC1(C)CCN(C(C)(C)C)C=C1C(=O)/C=C/c1ccc(/C=C/C(=O)C2=CN(C(C)(C)C)CCC2(C)C)c([N+](=O)[O-])c1
318 nm | 551 | 21936 | 362 nm | – | – | – | – | CCCCC(CC)CNc1ccc(C(=O)C2=CN(C(C)(C)C)CCC2(C)C)cc1 (stereo not drawn)
360 nm | 437 | 18987 | 386 nm | – | – | – | – | CC(C)(C)CC(C)(C)N1C=C(C(=O)/C=C/c2ccc(Br)cc2)C(C)(C)CC1
374 nm | 434 | 19194 | 385 nm | – | – | – | – | CC(C)(C)CC(C)(C)N1C=C(C(=O)/C=C/c2ccc(/C=C/C(=O)Cl)cc2)C(C)(C)CC1
– | – | – | – | 1217 | 308 nm | 34834 | 326 nm | CC1(C)CCN(C(C)(C)C)C=C1C(=O)Nc1ccccc1 [drawing 57]
– | – | – | – | 506 | 312 nm | 15174 | 337 nm | CN(C(=O)C1=CN(C(C)(C)C)CCC1(C)C)c1ccccc1 [drawing 58]

From patent US10519111B2, “UV absorbing compounds, compositions comprising same and uses thereof” (CORAL SUNSCREEN PTY LTD, priority 2013, dated 2019)
